Laboratory results taken from patent US20210024583A1, “COMPOSITIONS AND METHODS FOR PEPTIDE MEDIATED OLIGONUCLEOTIDE DELIVERY TO THE CENTRAL NERVOUS SYSTEM” (The Regents of the University of California, priority 2019, published 2021).
Entries after “also recorded” stand apart in the source; their conditions may differ. Where no end group is shown, it is not given here.

How the values were obtained:
α-synuclein = α-synuclein levels and co-localization in cortex after single i.p. FITC siαSyn:peptide; type: in vivo, mouse; settings: single i.p. injection, 4 hours
Description: To determine the co-localization between fluorescein isothiocyanate (FITC)-siαSyn and cellular markers, double labeling experiments were performed as previously described (44, 45). 40 p.m-thick vibratome sections were immunolabeled with the rabbit polyclonal antibody against α-synuclein (Chemicon, affinity purified polyclonal), NeuN (neuronal marker, Millipore) or GFAP (astroglial marker, Chemicon) and the immunoreactive structures were detected with the Tyramide Signal Amplification™-Direct (Red) system (NEN Life Sciences) while the siRNA was directly visualized by the appended FITC label. Sections were imaged with a Zeiss 63X™ (N.A. 1.4) objective on an Axiovert 35™ microscope (Zeiss) with an attached MRC1024™ LSCM system (BioRad) [22].
4 hours after injection, mice were sacrificed, whole brain removed and fixed. Sections were stained for α-synuclein and the nuclear marker, DAPI and then visualized for co-localization with the FITC labeled siRNA.

[1] = Brain distribution of FITC labeled siαSyn after single i.p. injection (co-labeling NeuN, GFAP); type: in vivo, mouse
Description: To determine the co-localization between fluorescein isothiocyanate (FITC)-siαSyn and cellular markers, double labeling experiments were performed as previously described (44, 45). […] vibratome sections were immunolabeled with the rabbit polyclonal antibody against α-synuclein (Chemicon, affinity purified polyclonal), NeuN (neuronal marker, Millipore) or GFAP (astroglial marker, Chemicon) and the immunoreactive structures were detected with the Tyramide Signal Amplification™-Direct (Red) system (NEN Life Sciences) while the siRNA was directly visualized by the appended FITC label. Sections were imaged with a Zeiss 63X™ (N.A. 1.4) objective on an Axiovert 35™ microscope (Zeiss) with an attached MRC1024™ LSCM system (BioRad).
4 hours after injection, mice were sacrificed, whole brain removed and fixed. (A,B) Sections were stained for the neuronal marker NeuN and the nuclear stain DAPI and then visualized for co-localization with the FITC labeled siRNA. (D,E) Sections were stained for the astrocytic marker GFAP and the nuclear stain DAPI and then visualized for co-localization with the FITC labeled siRNA.

Sequence: RLTRKRGLKLAGGGGGRRRRRRRRR [ApoB^11]
- co-localization of FITC label of siαSyn with αSyn expressing cells (α-synuclein): co-localized with αSyn expressing cells
- co-labeling of FITC labeled siαSyn RNA with astrocyte marker GFAP ([1]; 4 hours after i.p. injection): co-labeled with the astrocyte marker, GFAP in the cell body but not in the processes
- cellular localization of FITC labeled siαSyn in brain (co-labeling with NeuN, GFAP) ([1]; 4 hours after single i.p. injection, 50 μg, siRNA conjugated to the named peptide): delivered siαSyn RNA to neuronal cells; also recorded: primarily to neurons and only to a lesser extent the astrocytes
- FITC labeled siRNA delivered to NeuN positive neurons, compared with C2-9r peptide ([1]; α-syn tg mice, 4 hours after i.p. injection): significantly greater
